From ChEMBL document CHEMBL5537121, “Synthesis and biological evaluation of structurally diverse 6-aryl-3-aroyl-indole analogues as inhibitors of tubulin polymerization” (Eur J Med Chem, 2024)
Activity calls are given as the source filed them. The rule behind the calls is not given here.

What was measured:
[1] = Inhibition of bovine brain tubulin polymerization preincubated for 15 mins followed by GTP addition and measured after 20 mins by spectrophotometric analysis; design: species or system Bos taurus
MCF7 = assay: Cytotoxicity against human MCF7 cells assessed as cell growth inhibition incubated for 96 hrs by SRB assay; type: functional
MDA-MB-231 [2] = assay: Cytotoxicity against human MDA-MB-231 cells assessed as cell growth inhibition incubated for 96 hrs by SRB assay; type: functional
Tubulin (Homo sapiens) [3] = biological target: T1, Tubulin (Homo sapiens) (UniProt P68371+Q9H4B7+P0DPH7+P68366+Q13509+Q71U36+P04350+Q3ZCM7+P07437+P68363+Q9BQE3+Q6PEY2+Q13885+Q9BVA1+Q9BUF5); assay: Inhibition of [3H]Colchicine binding to tubulin (unknown origin) at 5 uM incubated for 10 mins by scintillation counter relative to control; type: protein-complex assay
[4] = Aqueous solubility of compound; type: physicochemical; conditions: water
Mus musculus [5] = assay: Vascular disrupting activity in BALB/c mouse implanted with mouse orthotopic RENCA-luc assessed as reduction in bioluminescence imaging signal at 100 mg/kg administered as single dose and measured at 2.5 hrs by imaging analysis; type: functional, organism-based
Mus musculus [6] = assay: Vascular disrupting activity in BALB/c mouse implanted with mouse orthotopic RENCA-luc assessed as reduction in bioluminescence imaging signal at 150 mg/kg administered as single dose and measured at 2.5 hrs by imaging analysis relative to control; type: functional; design: scale not given: the % may be the effect or the level left
Mus musculus [7] = assay: Vascular disrupting activity in BALB/c mouse implanted with mouse orthotopic RENCA-luc assessed as hemorrhage at 150 mg/kg administered as single dose and measured after 2.5 hrs by H&E staining based analysis; type: functional, organism-based
Mus musculus [8] = assay: Vascular disrupting activity in BALB/c mouse implanted with mouse orthotopic RENCA-luc assessed as necrosis at 150 mg/kg administered as single dose and measured after 2.5 hrs by H&E staining based analysis; type: functional, organism-based
Tubulin (Homo sapiens) [9] = biological target: T1, Tubulin (Homo sapiens); assay: Induction of microtubule disruption in human MDA-MB-231 cells assessed as reduction in fluorescence at 100 nM measured at <1.5 mins by ViaFluor 488 live cell microtubule and Hoechst 33342 staining based fluorescence microscopic analysis
Tubulin (Homo sapiens) [10] = biological target: T1, Tubulin (Homo sapiens); assay: Induction of microtubule disruption in human MDA-MB-231 cells at 100 nM measured at 30 mins by ViaFluor 488 live cell microtubule and Hoechst 33342 staining based fluorescence microscopic analysis
MDA-MB-231 [11] = assay: Induction of G2/M phase cell cycle arrest in human MDA-MB-231 cells at 200 to 500 nM incubated for 48 hrs by PI staining based flow cytometric analysis; type: functional; conditions: dose 200-500 nM
MDA-MB-231 [12] = assay: Inhibition of cell migration in human MDA-MB-231 cells at 50 nM incubated for 4 hrs by scratch assay; type: functional, cell-based
MDA-MB-231 [13] = assay: Inhibition of cell migration in human MDA-MB-231 cells at 50 nM incubated for 6 hrs by scratch assay; type: functional, cell-based
MDA-MB-231 [14] = assay: Inhibition of cell proliferation in human MDA-MB-231 cells at 50 nM incubated for 6 hrs by scratch assay; type: functional, cell-based
MDA-MB-231 [15] = assay: Inhibition of cell migration in human MDA-MB-231 cells at 50 nM incubated for 72 hrs by scratch assay; type: functional, cell-based
MDA-MB-231 [16] = assay: Induction of morphological changes in human MDA-MB-231 cells at 100 nM measured within 2 hrs by scratch assay; type: functional, cell-based
MDA-MB-231 [17] = assay: Induction of morphological changes in human MDA-MB-231 cells assessed as cell rounding at 100 nM measured after 20 hrs by scratch assay relative to control; type: functional
MDA-MB-231 [18] = assay: Inhibition of cell migration in human MDA-MB-231 cells at 100 nM incubated for 20 hrs by scratch assay; type: functional, cell-based
MDA-MB-231 [19] = assay: Inhibition of cell proliferation in human MDA-MB-231 cells at 100 nM incubated for 20 hrs by scratch assay; type: functional, cell-based
MDA-MB-231 [20] = assay: Inhibition of cell migration in human MDA-MB-231 cells at 100 nM incubated for 30 hrs by scratch assay; type: functional, cell-based
MDA-MB-231 [21] = assay: Induction of morphological changes in human MDA-MB-231 cells at 200 nM measured within 1 hrs by scratch assay; type: functional, cell-based
MDA-MB-231 [22] = assay: Induction of morphological changes in human MDA-MB-231 cells assessed as cell rounding at 200 nM measured after 14 hrs by scratch assay; type: functional
MDA-MB-231 [23] = assay: Inhibition of cell migration in human MDA-MB-231 cells at 200 nM by scratch assay; type: functional, cell-based
MDA-MB-231 [24] = assay: Inhibition of cell proliferation in human MDA-MB-231 cells at 200 nM by scratch assay; type: functional, cell-based
Tubulin (Homo sapiens) [25] = biological target: T1, Tubulin (Homo sapiens); assay: Inhibition of [3H]Colchicine binding to tubulin (unknown origin) at 0.5 uM incubated for 10 mins by scintillation counter relative to control; type: protein-complex assay

| SMILES | IC50 [1] [nM] | GI50 (MCF7) [nM] | GI50 (MDA-MB-231 [2]) [nM] | inhibition (Tubulin (Homo sapiens) [3]) [%] | also measured |
| --- | --- | --- | --- | --- | --- |
| CCc1ccc(-c2ccc3c(C(=O)c4cc(OC)c(OC)c(OC)c4)c[nH]c3c2)cc1 | > 20000 | 1800 | 2220 | – | – |
| CCc1ccc(-c2ccc3c(C(=O)c4cc(OC)c(O)c(OC)c4)c[nH]c3c2)cc1 | > 20000 | > 5000 | > 5000 | – | – |
| COc1ccc(-c2ccc3c(C(=O)c4cc(OC)c(OC)c(OC)c4)c[nH]c3c2)cc1 | 2500 | 98 | 1860 | 9.1 | – |
| COc1cc(C(=O)c2c[nH]c3cc(-c4cccc(OP(=O)([O-])[O-])c4)ccc23)cc(OC)c1OC.[Na+].[Na+] | 9000 | 4200 | 694 | – | solubility [4]: ≤ 2400 µg/mL; Activity (Mus musculus [5]): Active; Activity (Mus musculus [6]): >90%; Activity (Mus musculus [7]): Active; Activity (Mus musculus [8]): Active |
| COc1cc(C(=O)c2c[nH]c3cc(-c4cccc([N+](=O)[O-])c4)ccc23)cc(OC)c1OC | 650 | 28 | 110 | 41 | – |
| COc1cc(C(=O)c2c[nH]c3cc(-c4cccc(O)c4)ccc23)cc(OC)c1OC | 570 | 320 | 102 | 87 | Activity (Tubulin (Homo sapiens) [9]): Active; Activity (Tubulin (Homo sapiens) [10]): Active; Activity (MDA-MB-231 [11]): Active; inhibition (MDA-MB-231 [12]): Active; inhibition (MDA-MB-231 [13]): inactive; inhibition (MDA-MB-231 [14]): inactive; inhibition (MDA-MB-231 [15]): inactive; Activity (MDA-MB-231 [16]): Active; Activity (MDA-MB-231 [17]): <90%; inhibition (MDA-MB-231 [18]): Active; inhibition (MDA-MB-231 [19]): Active; inhibition (MDA-MB-231 [20]): Active; Activity (MDA-MB-231 [21]): Active; Activity (MDA-MB-231 [22]): >90%; inhibition (MDA-MB-231 [23]): Active; inhibition (MDA-MB-231 [24]): Active |
| COc1cccc(-c2ccc3c(C(=O)c4cc(OC)c(OC)c(OC)c4)c[nH]c3c2)c1 | 370 | 23 | 36 | 87 | – |
| COc1cc(C(=O)c2c[nH]c3cc(-c4ccc(C(C)=O)s4)ccc23)cc(OC)c1OC | > 20000 | 73 | 3230 | – | – |
| COc1ccc(/C=C\c2cc(OC)c(OC)c(OC)c2)cc1O [COMBRETASTATIN A4] | – | 9 | 3.5 | – | – |
| COc1cc(C(=O)c2c[nH]c3cc(-c4cc5ccccc5o4)ccc23)cc(OC)c1OC | > 20000 | 950 | 2070 | – | – |
| COc1cc(C(=O)c2c[nH]c3cc(-c4cccc(N)c4)ccc23)cc(OC)c1OC | 420 | 65 | 25 | 91 | inhibition (Tubulin (Homo sapiens) [25]): 51% |
| COc1cc(C(=O)c2c[nH]c3cc(-c4ccccc4)ccc23)cc(OC)c1OC | 280 | 73 | 156 | 86 | – |
| COc1cc(C(=O)c2c[nH]c3cc(-c4ccc(C(F)(F)F)cc4)ccc23)cc(OC)c1OC | > 20000 | 1400 | 4060 | – | – |
| COc1cc(C(=O)c2c[nH]c3cc(-c4ccc(C)cc4)ccc23)cc(OC)c1OC | 1700 | 560 | 2010 | 17 | – |
| COc1ccc(-c2ccc3c(C(=O)c4cc(OC)c(OC)c(OC)c4)c[nH]c3c2)cc1O | > 20000 | 1500 | 828 | – | – |
